Laboratory results published in PubChem BioAssay AID1845196 (Molecular Pharmacology Branch, DTP, NCI, 2023).

Tested on: 292921-168-R tumor spheroid viability
Experiment: Anticancer human tumor 292921-168-R patient-derived pancreatic carcinoma cell line growth inhibition
Conditions: spheroids with HUVEC and MSC; for IC50: curve of first compound; for viability, T/C: stronger effect = lower value; active means viability on the fitted dose curve at most 10% of control; inactive means the rest
In short: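 Complex spheroids of malignant cells with endothelial cells and mesenchymal stem cells; agents alone or combined, from near clinical Cmax (or 10 microM if unknown) down in half-log steps, 0.25% DMSO final.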

[1] = second compound 30 pM, first compound 0.00949 µM
[2] = second compound 30 pM, first compound 0.03 µM
[3] = second compound 30 pM, first compound 0.0949 µM
[4] = second compound 30 pM, first compound 0.3 µM
[5] = second compound 30 pM, first compound 0.949 µM
[6] = second compound 30 pM, first compound 3 µM
[7] = second compound 94.9 pM, first compound 0.00949 µM
[8] = second compound 94.9 pM, first compound 0.03 µM
[9] = second compound 94.9 pM, first compound 0.0949 µM
[10] = second compound 94.9 pM, first compound 0.3 µM
[11] = second compound 94.9 pM, first compound 0.949 µM
[12] = second compound 94.9 pM, first compound 3 µM
[13] = second compound 0.0003 µM, first compound 0.00949 µM
[14] = second compound 0.0003 µM, first compound 0.03 µM
[15] = second compound 0.0003 µM, first compound 0.0949 µM
[16] = second compound 0.0003 µM, first compound 0.3 µM
[17] = second compound 0.0003 µM, first compound 0.949 µM
[18] = second compound 0.0003 µM, first compound 3 µM
[19] = second compound 0.000949 µM, first compound 0.00949 µM
[20] = second compound 0.000949 µM, first compound 0.03 µM
[21] = second compound 0.000949 µM, first compound 0.0949 µM
[22] = second compound 0.000949 µM, first compound 0.3 µM
[23] = second compound 0.000949 µM, first compound 0.949 µM
[24] = second compound 0.000949 µM, first compound 3 µM
[25] = second compound 0.003 µM, first compound 0.00949 µM
[26] = second compound 0.003 µM, first compound 0.03 µM
[27] = second compound 0.003 µM, first compound 0.0949 µM
[28] = second compound 0.003 µM, first compound 0.3 µM
[29] = second compound 0.003 µM, first compound 0.949 µM
[30] = second compound 0.003 µM, first compound 3 µM
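Further: spheroids exposed to compounds for 7 days.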

[2H]c1nc(C)nc([2H])c1-c1cc(NC[C@@H](C)c2cccc3c(C(=O)NC)ccnc23)ncn1 + CC[C@@]1(O)C(=O)OCc2c1cc1n(c2=O)Cc2cc3c(CN(C)C)c(O)ccc3nc2-1
< 0.0316 µM: IC50 (second compound 0.03 µM) | IC50 (second compound 0.0949 µM) | IC50 (second compound 0.3 µM)
active: viability, T/C (second compound 0.3 µM, first compound 0.0316 µM) 3.57% | viability, T/C (second compound 0.3 µM, first compound 0.1 µM) 4.5% | viability, T/C (second compound 0.3 µM, first compound 0.316 µM) 3.67% | viability, T/C (second compound 0.3 µM, first compound 1 µM) 3.37% | viability, T/C (second compound 0.3 µM, first compound 3.16 µM) 3.59% | viability, T/C (second compound 0.3 µM, first compound 10 µM) 2.83%
> 10 µM: IC50 (second compound 0.003 µM) | IC50 (second compound 0.00949 µM)
inactive: viability, T/C (second compound 0.003 µM, first compound 0.0316 µM) 101% | viability, T/C (second compound 0.003 µM, first compound 0.1 µM) 87.8% | viability, T/C (second compound 0.003 µM, first compound 0.316 µM) 96.9% | viability, T/C (second compound 0.003 µM, first compound 1 µM) 102% | viability, T/C (second compound 0.003 µM, first compound 3.16 µM) 93.8% | viability, T/C (second compound 0.003 µM, first compound 10 µM) 86.9% | viability, T/C (second compound 0.00949 µM, first compound 0.0316 µM) 83.3% | viability, T/C (second compound 0.00949 µM, first compound 0.1 µM) 81% | viability, T/C (second compound 0.00949 µM, first compound 0.316 µM) 77.7% | viability, T/C (second compound 0.00949 µM, first compound 1 µM) 76.9% | viability, T/C (second compound 0.00949 µM, first compound 3.16 µM) 79.8% | viability, T/C (second compound 0.00949 µM, first compound 10 µM) 70.9% | viability, T/C (second compound 0.03 µM, first compound 0.0316 µM) 49.2% | viability, T/C (second compound 0.03 µM, first compound 0.1 µM) 35.9% | viability, T/C (second compound 0.03 µM, first compound 0.316 µM) 41.5% | viability, T/C (second compound 0.03 µM, first compound 1 µM) 37.4% | viability, T/C (second compound 0.03 µM, first compound 3.16 µM) 37.4% | viability, T/C (second compound 0.03 µM, first compound 10 µM) 23% | viability, T/C (second compound 0.0949 µM, first compound 0.0316 µM) 12.1% | viability, T/C (second compound 0.0949 µM, first compound 0.1 µM) 13.4% | viability, T/C (second compound 0.0949 µM, first compound 0.316 µM) 12.2% | viability, T/C (second compound 0.0949 µM, first compound 1 µM) 12.6% | viability, T/C (second compound 0.0949 µM, first compound 3.16 µM) 9.08% | viability, T/C (second compound 0.0949 µM, first compound 10 µM) 8.57%

Cc1sc2c(c1C)C(c1ccc(Cl)cc1)=NC(CC(=O)Nc1ccc(O)cc1)c1nnc(C)n1-2 (stereo not given) + COc1cc2c(cc1O)CCNC21CSC2c3c(OC(C)=O)c(C)c4c(c3C(COC1=O)N1C(O)C3Cc5cc(C)c(OC)c(O)c5C(C21)N3C)OCO4
1.69 µM: IC50 (second compound 30 pM)
0.306 µM: IC50 (second compound 0.0003 µM)
inactive: viability, T/C [1] 110% | viability, T/C [2] 120% | viability, T/C [3] 118% | viability, T/C [4] 136% | viability, T/C [5] 63.5% | viability, T/C [6] 36.5% | viability, T/C [7] 106% | viability, T/C [8] 110% | viability, T/C [9] 118% | viability, T/C [10] 110% | viability, T/C [11] 79.2% | viability, T/C [12] 22.5% | viability, T/C [13] 53.8% | viability, T/C [14] 52.6% | viability, T/C [15] 63.2% | viability, T/C [16] 50.7%
1.72 µM: IC50 (second compound 94.9 pM)
active: viability, T/C [17] 4.2% | viability, T/C [18] 0.5% | viability, T/C [19] 1.64% | viability, T/C [20] 1.61% | viability, T/C [21] 0.91% | viability, T/C [22] 0.26% | viability, T/C [23] 0.07% | viability, T/C [24] 0.13% | viability, T/C [25] 0.18% | viability, T/C [26] 0.16% | viability, T/C [27] 0.16% | viability, T/C [28] 0.15% | viability, T/C [29] 0.25% | viability, T/C [30] 0.58%
< 0.00949 µM: IC50 (second compound 0.000949 µM) | IC50 (second compound 0.003 µM)

Cn1ncnc1[C@H]1c2n[nH]c(=O)c3cc(F)cc(c23)N[C@@H]1c1ccc(F)cc1 + COc1cc2c(cc1O)CCNC21CSC2c3c(OC(C)=O)c(C)c4c(c3C(COC1=O)N1C(O)C3Cc5cc(C)c(OC)c(O)c5C(C21)N3C)OCO4
inactive: viability, T/C [1] 103% | viability, T/C [2] 86.9% | viability, T/C [3] 76.5% | viability, T/C [4] 70.5% | viability, T/C [5] 41.4% | viability, T/C [6] 11.9% | viability, T/C [7] 85.1% | viability, T/C [8] 69.8% | viability, T/C [9] 65.1% | viability, T/C [10] 47.5% | viability, T/C [11] 26.4% | viability, T/C [13] 26.6% | viability, T/C [14] 29.4% | viability, T/C [15] 24.2% | viability, T/C [16] 17.1% | viability, T/C [17] 14.6%
< 0.00949 µM: IC50 (second compound 0.0003 µM) | IC50 (second compound 0.000949 µM) | IC50 (second compound 0.003 µM)
0.233 µM: IC50 (second compound 94.9 pM)
0.646 µM: IC50 (second compound 30 pM)
active: viability, T/C [12] 9.68% | viability, T/C [18] 7% | viability, T/C [19] 4.23% | viability, T/C [20] 4.2% | viability, T/C [21] 3.68% | viability, T/C [22] 2.89% | viability, T/C [23] 1.55% | viability, T/C [24] 0.27% | viability, T/C [25] 0.19% | viability, T/C [26] 0.19% | viability, T/C [27] 0.17% | viability, T/C [28] 0.22% | viability, T/C [29] 0.18% | viability, T/C [30] 0.42%
